Assay results taken from US8247211B2, “Glycopeptide antibiotics” (American Cyanamid Company, priority 2001, dated 2012).
≈ marks a conversion by molar mass, not a printed value. One block for each molecule: values may come before it.

Experiments:
Experiment in all cases: In vitro antibacterial evaluation: minimum inhibitory concentration (MIC), broth dilution method
Assay type in all cases: cell-based
[1] = tested on: Streptococcus sp.; details: broth dilution, 5×10^5 CFU/mL, 18 hours at 35° C.
Experimental: (§1) The minimum inhibitory concentration (MIC), the lowest concentration of the antibiotic which inhibits growth of the test organism, is determined by the broth dilution method using Muller-Hinton II […] (Baltimore Biological Laboratories) following the recommendations of the National Committee for Clinical Laboratory Standards [Methods for dilution antimicrobial susceptibility tests for bacteria that grow aerobically, approved standard M7-A2, National Committee for Clinical Laboratory Standards, Villanova, Pa].
(§2) An inoculum level of 5×10^5 CFU/mL, and a range of antibiotic concentrations (64-0.06 μg/mL) is used. […] The test organisms include a spectrum of Gram-positive bacteria comprised of Staphylococcus sp., Streptococcus sp. and Enterococcus sp. These organisms include recent clinical isolates that are resistant to methicillin, penicillin and/or vancomycin.

[2] = tested on: Enterococcus sp.; details: broth dilution, 5×10^5 CFU/mL, 18 hours at 35° C.
Experimental: as §1, §2

[3] = tested on: Escherichia coli; details: 5×10^5 CFU/mL, 18 hours at 35° C.
Experimental: as §1, §2

[4] = tested on: Staphylococcus sp.; details: for MIC Staphylococcus aureus (ATCC 29213): strain ATCC 29213; for MIC Staphylococcus aureus (GC 1131): strain GC 1131; for MIC Staphylococcus aureus (GC 3051): strain GC 3051; for MIC Staphylococcus aureus (GC 3053): strain GC 3053; for MIC Staphylococcus aureus (GC 4541): strain GC 4541; for MIC Staphylococcus aureus (GC 4542): strain GC 4542; for MIC Staphylococcus aureus (GC 4544): strain GC 4544; for MIC Staphylococcus aureus (GC 4545): strain GC 4545
Experimental: as §1, §2

[5] = broth dilution, 5×10^5 CFU/mL, 18 hours at 35° C.
[6] = broth dilution, 18 hours at 35° C.
[7] = strain GC 4543, broth dilution, 18 hours at 35° C.
[8] = strain GC 4546, broth dilution, 18 hours at 35° C.
[9] = strain GC 4547, broth dilution, 18 hours at 35° C.
[10] = strain GC 4548, broth dilution, 18 hours at 35° C.
[11] = strain GC 4549, broth dilution, 18 hours at 35° C.
[12] = strain GC 4551, broth dilution, 18 hours at 35° C.
[13] = strain GC 6257, broth dilution, 18 hours at 35° C.

MIC Streptococcus agalactiae (GC 4564) [1]: <0.5 µg/mL | MIC Streptococcus pneumoniae (GC 1894) [1]: <0.5 µg/mL | MIC Streptococcus pneumoniae (GC 4565) [1]: 4 µg/mL (≈ 2.88 µM) | MIC Streptococcus pneumonine (ATCC 6301) [1]: <0.5 µg/mL | MIC Streptococcus pyogenes (GC 4563) [1]: <0.5 µg/mL | MIC Enterococccus avium (GC 4558) [2]: 8 µg/mL (≈ 5.76 µM) | MIC Enterococccus faecalis (ATCC 29212) [2]: 8 µg/mL (≈ 5.76 µM) | MIC Enterococccus faecalis (GC 2691) [2]: 8 µg/mL (≈ 5.76 µM) | MIC Enterococccus faecalis (GC 3059) [2]: 8 µg/mL (≈ 5.76 µM) | MIC Enterococccus faecalis (GC 4552) [2]: 8 µg/mL (≈ 5.76 µM) | MIC Enterococccus faecalis (GC 4553) [2]: 8 µg/mL (≈ 5.76 µM) | MIC Enterococccus faecalis (GC 4554) [2]: 8 µg/mL (≈ 5.76 µM) | MIC Enterococccus faecalis (GC 6189) [2]: 4 µg/mL (≈ 2.88 µM) | MIC Enterococccus faecium (GC 2243) [2]: 8 µg/mL (≈ 5.76 µM) | MIC Enterococccus faecium (GC 4556) [2]: 8 µg/mL (≈ 5.76 µM) | MIC Enterococccus faecium (GC 4557) [2]: 2 µg/mL (≈ 1.44 µM) | MIC Enterococcus faecalis (GC 2242) [2]: 4 µg/mL (≈ 2.88 µM) | MIC Escherichia coli (ATCC 25922) [3]: 64 µg/mL (≈ 46.1 µM) | MIC Escherichia coli (GC 4559) [3]: 32 µg/mL (≈ 23 µM) | MIC Escherichia coli (GC 4560) [3]: <0.5 µg/mL | MIC Coagulase Negative Staphylococcus (GC 4547) [4, 5]: 1 µg/mL (≈ 0.72 µM) | MIC Coagulase Negative Staphylococcus (GC 4548) [4, 5]: <0.5 µg/mL | MIC Coagulase Negative Staphylococcus (GC 4549) [4, 5]: 1 µg/mL (≈ 0.72 µM) | MIC Coagulase Negative Staphylococcus (GC 4551) [4, 5]: 1 µg/mL (≈ 0.72 µM) | MIC Coagulase Negative Staphylococcus (GC 6257) [4, 5]: 1 µg/mL (≈ 0.72 µM) | MIC Staphylococcus aureus-SMITH (GC 4543) [4, 5]: 1 µg/mL (≈ 0.72 µM) | MIC Staphylococcus aureus (ATCC 29213) [4]: 1 µg/mL (≈ 0.72 µM) | MIC Staphylococcus aureus (ATCC 29213) [4, 6]: 1 µg/mL (≈ 0.72 µM) | MIC Staphylococcus aureus (GC 1131) [4]: 2 µg/mL (≈ 1.44 µM) | MIC Staphylococcus aureus (GC 1131) [4, 6]: 2 µg/mL (≈ 1.44 µM) | MIC Staphylococcus aureus (GC 3051) [4]: 1 µg/mL (≈ 0.72 µM) | MIC Staphylococcus aureus (GC 3051) [4, 6]: 1 µg/mL (≈ 0.72 µM) | MIC Staphylococcus aureus (GC 3053) [4]: 4 µg/mL (≈ 2.88 µM) | MIC Staphylococcus aureus (GC 3053) [4, 6]: 4 µg/mL (≈ 2.88 µM) | MIC Staphylococcus aureus (GC 4541) [4]: 1 µg/mL (≈ 0.72 µM) | MIC Staphylococcus aureus (GC 4541) [4, 6]: 1 µg/mL (≈ 0.72 µM) | MIC Staphylococcus aureus (GC 4542) [4]: 2 µg/mL (≈ 1.44 µM) | MIC Staphylococcus aureus (GC 4542) [4, 6]: 2 µg/mL (≈ 1.44 µM) | MIC Staphylococcus aureus-SMITH (GC 4543) [4, 7]: 1 µg/mL (≈ 0.72 µM) | MIC Staphylococcus aureus (GC 4544) [4]: 2 µg/mL (≈ 1.44 µM) | MIC Staphylococcus aureus (GC 4544) [4, 6]: 2 µg/mL (≈ 1.44 µM) | MIC Staphylococcus aureus (GC 4545) [4]: 1 µg/mL (≈ 0.72 µM) | MIC Staphylococcus aureus (GC 4545) [4, 6]: 1 µg/mL (≈ 0.72 µM) | MIC Coagulase Negative Staphylococcus (GC 4547) [4, 9]: 1 µg/mL (≈ 0.72 µM) | MIC Coagulase Negative Staphylococcus (GC 4548) [4, 10]: <0.5 µg/mL | MIC Coagulase Negative Staphylococcus (GC 4549) [4, 11]: 1 µg/mL (≈ 0.72 µM) | MIC Coagulase Negative Staphylococcus (GC 4551) [4, 12]: 1 µg/mL (≈ 0.72 µM) | MIC Coagulase Negative Staphylococcus (GC 6257) [4, 13]: 1 µg/mL (≈ 0.72 µM)
SMILES: CC(c1ccccc1)C1NC(=O)CNC(=O)C(CO)NC(=O)C(C(O)C2CNC(=N)N2C2OC(CO)C(O)C(O)C2O)NC(=O)C(C(O)C2CNC(=N)N2)NC(=O)C(Cc2ccc(OC3OC(CO)C(OC4OC5COC(c6ccsc6)OC5C(O)C4O)C(O)C3O)cc2)NC1=O (stereo not drawn) [Example 133, Cyclo[glycyl-β-methylphenylalanyl-O-[4-O-[4,6-O-(3-thienylmethylene)hexopyranosyl]-hexopyranosyl]tyrosyl-3-(2-iminoimidazolidin-4-yl)seryl-3-(3-hexopyranosyl-2-iminoimidazolidin-4-yl)serylseryl]]
MIC Staphylococcus haemolyticus (GC 4546) [4, 5]: 1 µg/mL (≈ 0.72 µM) | MIC Staphylococcus haemolyticus (GC 4546) [4, 8]: 1 µg/mL (≈ 0.72 µM)

MIC Streptococcus agalactiae (GC 4564) [1]: 8 µg/mL (≈ 5.72 µM) | MIC Streptococcus pneumoniae (GC 1894) [1]: 1 µg/mL (≈ 0.715 µM) | MIC Streptococcus pneumoniae (GC 4565) [1]: 4 µg/mL (≈ 2.86 µM) | MIC Streptococcus pneumonine (ATCC 6301) [1]: 2 µg/mL (≈ 1.43 µM) | MIC Streptococcus pyogenes (GC 4563) [1]: 8 µg/mL (≈ 5.72 µM) | MIC Enterococccus avium (GC 4558) [2]: 64 µg/mL (≈ 45.7 µM) | MIC Enterococccus faecalis (ATCC 29212) [2]: >64 µg/mL | MIC Enterococccus faecalis (GC 2691) [2]: >64 µg/mL | MIC Enterococccus faecalis (GC 3059) [2]: >64 µg/mL | MIC Enterococccus faecalis (GC 4552) [2]: >64 µg/mL | MIC Enterococccus faecalis (GC 4553) [2]: >64 µg/mL | MIC Enterococccus faecalis (GC 4554) [2]: >64 µg/mL | MIC Enterococccus faecalis (GC 6189) [2]: 64 µg/mL (≈ 45.7 µM) | MIC Enterococccus faecium (GC 2243) [2]: >64 µg/mL | MIC Enterococccus faecium (GC 4556) [2]: 64 µg/mL (≈ 45.7 µM) | MIC Enterococccus faecium (GC 4557) [2]: 8 µg/mL (≈ 5.72 µM) | MIC Enterococcus faecalis (GC 2242) [2]: 64 µg/mL (≈ 45.7 µM) | MIC Escherichia coli (ATCC 25922) [3]: >64 µg/mL | MIC Escherichia coli (GC 4559) [3]: >64 µg/mL | MIC Escherichia coli (GC 4560) [3]: 4 µg/mL (≈ 2.86 µM) | MIC Coagulase Negative Staphylococcus (GC 4547) [4, 5]: 8 µg/mL (≈ 5.72 µM) | MIC Coagulase Negative Staphylococcus (GC 4548) [4, 5]: 8 µg/mL (≈ 5.72 µM) | MIC Coagulase Negative Staphylococcus (GC 4549) [4, 5]: 4 µg/mL (≈ 2.86 µM) | MIC Coagulase Negative Staphylococcus (GC 4551) [4, 5]: 32 µg/mL (≈ 22.9 µM) | MIC Coagulase Negative Staphylococcus (GC 6257) [4, 5]: 4 µg/mL (≈ 2.86 µM) | MIC Staphylococcus aureus-SMITH (GC 4543) [4, 5]: 16 µg/mL (≈ 11.4 µM) | MIC Staphylococcus aureus (ATCC 29213) [4]: 16 µg/mL (≈ 11.4 µM) | MIC Staphylococcus aureus (ATCC 29213) [4, 6]: 16 µg/mL (≈ 11.4 µM) | MIC Staphylococcus aureus (GC 1131) [4]: 16 µg/mL (≈ 11.4 µM) | MIC Staphylococcus aureus (GC 1131) [4, 6]: 16 µg/mL (≈ 11.4 µM) | MIC Staphylococcus aureus (GC 3051) [4]: 16 µg/mL (≈ 11.4 µM) | MIC Staphylococcus aureus (GC 3051) [4, 6]: 16 µg/mL (≈ 11.4 µM) | MIC Staphylococcus aureus (GC 3053) [4]: 32 µg/mL (≈ 22.9 µM) | MIC Staphylococcus aureus (GC 3053) [4, 6]: 32 µg/mL (≈ 22.9 µM) | MIC Staphylococcus aureus (GC 4541) [4]: 8 µg/mL (≈ 5.72 µM) | MIC Staphylococcus aureus (GC 4541) [4, 6]: 8 µg/mL (≈ 5.72 µM) | MIC Staphylococcus aureus (GC 4542) [4]: 16 µg/mL (≈ 11.4 µM) | MIC Staphylococcus aureus (GC 4542) [4, 6]: 16 µg/mL (≈ 11.4 µM) | MIC Staphylococcus aureus-SMITH (GC 4543) [4, 7]: 16 µg/mL (≈ 11.4 µM) | MIC Staphylococcus aureus (GC 4544) [4]: 16 µg/mL (≈ 11.4 µM) | MIC Staphylococcus aureus (GC 4544) [4, 6]: 16 µg/mL (≈ 11.4 µM) | MIC Staphylococcus aureus (GC 4545) [4]: 16 µg/mL (≈ 11.4 µM) | MIC Staphylococcus aureus (GC 4545) [4, 6]: 16 µg/mL (≈ 11.4 µM) | MIC Coagulase Negative Staphylococcus (GC 4547) [4, 9]: 8 µg/mL (≈ 5.72 µM) | MIC Coagulase Negative Staphylococcus (GC 4548) [4, 10]: 8 µg/mL (≈ 5.72 µM) | MIC Coagulase Negative Staphylococcus (GC 4549) [4, 11]: 4 µg/mL (≈ 2.86 µM) | MIC Coagulase Negative Staphylococcus (GC 4551) [4, 12]: 32 µg/mL (≈ 22.9 µM) | MIC Coagulase Negative Staphylococcus (GC 6257) [4, 13]: 4 µg/mL (≈ 2.86 µM)
SMILES: CC(c1ccccc1)C1NC(=O)CNC(=O)C(CO)NC(=O)C(C(O)C2CNC(=N)N2C2OC(CO)C(O)C(O)C2O)NC(=O)C(C(O)C2CNC(=N)N2)NC(=O)C(Cc2ccc(OC3OC(CO)C(OC4OC5COC(c6cccc(O)c6)OC5C(O)C4O)C(O)C3O)cc2)NC1=O (stereo not drawn) [Example 136, Cyclo[glycyl-β-methylphenylalanyl-O-[4-O-[4,6-O-(3-hydroxybenzylidene)hexopyranosyl]-hexopyranosyl]tyrosyl-3-(2-iminoimidazolidin-4-yl)seryl-3-(3-hexopyranosyl-2-iminoimidazoliclin-4-yl)serylseryl]]
MIC Staphylococcus haemolyticus (GC 4546) [4, 5]: 16 µg/mL (≈ 11.4 µM) | MIC Staphylococcus haemolyticus (GC 4546) [4, 8]: 16 µg/mL (≈ 11.4 µM)
